ChEMBL document CHEMBL4418304, “Combinations for the treatment of kidney stones” (2017)

target: T1, Hydroxyproline dehydrogenase (Homo sapiens, UniProt Q9UF12); assay: Inhibition of recombinant human HYPDH expressed in Escherichia coli using hydroxyproline as substrate preincubated for 5 mins followed by substrate addition in presence of FAD as cofactor; settings: not given
T1 sequence (Q9UF12 whole entry): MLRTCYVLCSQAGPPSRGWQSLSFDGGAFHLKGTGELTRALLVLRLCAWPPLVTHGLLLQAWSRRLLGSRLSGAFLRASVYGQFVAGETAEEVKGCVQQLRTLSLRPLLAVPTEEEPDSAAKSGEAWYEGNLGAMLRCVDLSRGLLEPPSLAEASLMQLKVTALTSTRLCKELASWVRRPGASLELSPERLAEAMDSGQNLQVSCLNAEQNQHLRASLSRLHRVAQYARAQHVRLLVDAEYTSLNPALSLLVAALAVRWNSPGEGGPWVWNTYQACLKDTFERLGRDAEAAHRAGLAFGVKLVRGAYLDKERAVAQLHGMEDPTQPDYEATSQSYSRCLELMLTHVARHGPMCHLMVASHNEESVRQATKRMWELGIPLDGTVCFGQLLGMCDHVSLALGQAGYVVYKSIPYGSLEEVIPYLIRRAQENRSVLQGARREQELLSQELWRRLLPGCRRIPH

IC50 | Structure (SMILES)
Nd(Insoluble) | O=C(O)c1ccco1

same assay, conditions: read-out: IC50

Structure (SMILES) | IC50 [µM]
O=C(O)[C@H]1CC[C@H](O)C1 | 600
O=C(O)[C@@H]1C[C@H](O)CS1 | 370
O=C(O)[C@@H]1CC[C@@H](O)C1 | 2100
O=C(O)C1CCCO1 (stereo unspecified) | 1500
O=C(O)[C@@H]1C[C@@H](O)CS1 | 330
O=C(O)[C@@H]1CC(O)(O)CS1 | 290
O=C(O)C[C@H]1CC[C@H](O)C1 | 480
N[C@H]1CC[C@H](C(=O)O)C1 | 630
O=C(O)[C@H]1CC[C@@H](O)C1 | > 10000

Second part, the molecule after the results:

IC50 [µM] | Structure (SMILES)
2900 | O=C(O)C1=NN=C(O)C1
370 | O=C1CC[C@@H](C(=O)O)C1
< 1000 | O=C(O)c1cc(O)cs1
380 | O=C1CC[C@H](C(=O)O)C1
320 | O=C1CS[C@H](C(=O)O)C1

target: T2, 2-Hydroxyacid oxidase 1 (Homo sapiens, UniProt Q9UJM8); assay: Inhibition of recombinant human liver HAOX1 using glycolate as substrate preincubated for 5 mins followed by substrate addition in presence of […]; settings: not given
T2 sequence (Q9UJM8 whole entry): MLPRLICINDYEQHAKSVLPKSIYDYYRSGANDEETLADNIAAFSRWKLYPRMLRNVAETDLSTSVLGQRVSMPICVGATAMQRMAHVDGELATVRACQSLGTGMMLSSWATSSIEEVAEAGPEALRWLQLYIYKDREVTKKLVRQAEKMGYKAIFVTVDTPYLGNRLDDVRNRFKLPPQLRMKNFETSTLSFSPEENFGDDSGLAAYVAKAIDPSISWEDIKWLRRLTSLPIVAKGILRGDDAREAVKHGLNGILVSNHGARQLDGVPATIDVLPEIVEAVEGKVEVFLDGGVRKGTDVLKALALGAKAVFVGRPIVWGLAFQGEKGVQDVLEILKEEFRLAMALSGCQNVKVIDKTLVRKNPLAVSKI

Ki [µM] | Structure (SMILES)
0.015 | CCCCCCCCCCCCSc1[nH]nnc1C(=O)O
